Measurements from ChEMBL document CHEMBL1201862, “PubChem BioAssay data set” (2004).
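Test compounds were applied to cells in 96-well plates for 48 hours at 5 doses. GI50 marks 50% less growth.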 Calls of active or inactive are those of the source. No stated cut-off is given here; in the data, active = GI50 up to about 1.1 µM and inactive = higher.

How the values were obtained:
Assay in all cases: inhibition of tumour cell growth, NCI panel, 48 h
[1] = system: A498
[2] = system: M14
[3] = system: Hs-578T
[4] = system: SN12C
[5] = system: BT-549
[6] = system: TK-10
[7] = system: HOP-62
[8] = system: PC-3
[9] = system: KM12
[10] = system: SNB-19
[11] = system: SF-295
[12] = system: SK-MEL-2
[13] = system: SK-OV-3
[14] = system: SF-268
[15] = system: IGROV-1
[16] = system: CCRF-CEM
[17] = system: CAKI-1
[18] = system: OVCAR-3
[19] = system: KM-20L2
[20] = system: SNB-78

Measured: GI50

CCCN1C(=O)CN(S(=O)(=O)c2ccc(Cl)cc2)C1=O
inactive: [1] > 100 µM | [2] > 100 µM | [3] > 100 µM | [4] > 100 µM | [5] > 100 µM | [6] > 100 µM | [7] > 100 µM | [8] > 100 µM | [9] > 100 µM | [10] > 100 µM | [11] > 100 µM | [12] > 100 µM | [13] > 100 µM | [14] > 100 µM | [15] > 100 µM | [16] > 100 µM | [17] > 100 µM | [18] > 100 µM

CC#CC#C/C=C1\C=CC2(OC=CC2O)O1 (stereo not drawn)
inactive: [2] > 17.8 µM | [4] > 23.3 µM | [6] > 23.3 µM | [19] 3.94 µM | [7] > 23.3 µM | [9] 3.32 µM | [10] > 23.3 µM | [11] > 23.3 µM | [12] > 17.8 µM | [13] > 23.3 µM | [14] > 23.3 µM | [15] > 16.7 µM | [20] 4.93 µM | [16] > 11.3 µM | [17] 14.8 µM | [18] 7.52 µM

Cc1cc2c3ccccc3n3c2c2c1OC1(C)CCC(C2C1)C3(C)C (stereo not drawn)
inactive: [2] > 25 µM | [4] > 25 µM | [6] > 25 µM | [19] > 25 µM | [7] > 25 µM | [9] > 25 µM | [10] > 25 µM | [12] > 25 µM | [13] > 25 µM | [14] > 25 µM | [15] > 25 µM | [20] > 25 µM | [16] > 25 µM | [18] > 25 µM

Cn1c(N/N=C/c2ccc(Cl)cc2)nc(-c2ccc(Cl)cc2)c(C#N)c1=O
inactive: [1] 32.1 µM | [2] 20 µM | [3] 30.3 µM | [4] 44.1 µM | [5] 21.8 µM | [6] 29 µM | [7] 12 µM | [8] 26.8 µM | [9] 22.6 µM | [10] > 100 µM | [11] 17.5 µM | [12] 10.5 µM | [13] > 100 µM | [14] 35.4 µM | [15] 6.73 µM | [16] 25.4 µM | [17] 47 µM | [18] 16.4 µM

CC1(C)CC(=O)C=C(NC(=O)c2ccccc2)C1
inactive: [1] > 100 µM | [2] > 100 µM | [4] > 100 µM | [6] > 100 µM | [7] > 100 µM | [9] > 100 µM | [10] > 100 µM | [11] > 100 µM | [12] > 100 µM | [13] > 100 µM | [14] > 100 µM | [15] > 100 µM | [20] > 100 µM | [16] > 100 µM | [17] > 100 µM | [18] > 100 µM

N=C(N)NS(=O)(=O)c1ccc(NC(=O)c2cccc3c(NNc4ccc(C(=O)O)cc4)c4ccccc4nc23)cc1
inactive: [1] 24.4 µM | [2] > 100 µM | [3] > 100 µM | [4] > 100 µM | [5] > 100 µM | [6] > 100 µM | [7] > 100 µM | [8] 46.3 µM | [9] 45.2 µM | [10] 57.8 µM | [11] > 100 µM | [12] 22.9 µM | [13] 47.2 µM | [14] 58.7 µM | [15] > 100 µM | [16] 25.8 µM | [17] > 100 µM | [18] 46.7 µM

C(=C1/CCCCC([n+]2ccccc2)=N1)/c1ccccc1
inactive: [2] > 100 µM | [4] > 100 µM | [19] > 100 µM | [7] > 100 µM | [11] > 100 µM | [12] > 100 µM | [13] > 100 µM | [14] > 100 µM | [20] > 100 µM | [16] > 100 µM | [17] > 100 µM | [18] > 100 µM

O=[N+]([O-])c1ccc(C[P+](c2ccccc2)(c2ccccc2)c2ccccc2)cc1
inactive: [1] > 100 µM | [2] 56.9 µM | [4] > 100 µM | [6] 56 µM | [19] 99.3 µM | [7] > 100 µM | [9] 52.5 µM | [10] > 100 µM | [11] > 100 µM | [12] 25.4 µM | [13] > 100 µM | [15] 25.4 µM | [16] 80 µM | [18] 42.8 µM

C/C(=C1/N=C(c2ccccc2)OC1=O)c1cccs1
inactive: [1] > 100 µM | [2] > 100 µM | [3] 73.5 µM | [4] > 100 µM | [5] > 100 µM | [6] > 100 µM | [7] 55 µM | [8] > 100 µM | [9] > 100 µM | [10] > 100 µM | [11] > 100 µM | [12] > 100 µM | [13] > 100 µM | [14] > 100 µM | [15] 63.7 µM | [16] > 100 µM | [17] > 100 µM | [18] > 100 µM

CC1(C)OCC(C2OC(C)(C)OC2[C@H]2O[C@@]3(O)[C@H]4[C@H](C=CC[C@@H]42)[C@@H](OCc2ccccc2)[C@H](OCc2ccccc2)[C@H]3OCc2ccccc2)O1 (stereo partly drawn)
inactive: [1] > 100 µM | [2] 59.3 µM | [3] > 100 µM | [4] 41.2 µM | [5] 72.3 µM | [6] 32.4 µM | [7] > 100 µM | [8] 31 µM | [9] 47.4 µM | [10] 63.7 µM | [11] > 100 µM | [12] 20.7 µM | [13] > 100 µM | [14] 70 µM | [15] 71 µM | [16] 8.63 µM | [17] 79.1 µM | [18] 52.2 µM

COC(=O)C(=O)C(C(=O)C(=O)Nc1nnc(S)[nH]1)c1nc2ccc([N+](=O)[O-])cc2nc1O (stereo not drawn)
inactive: [1] > 100 µM | [2] > 100 µM | [3] > 100 µM | [4] > 100 µM | [5] > 100 µM | [6] > 100 µM | [7] > 100 µM | [8] > 100 µM | [9] > 100 µM | [10] 44.7 µM | [11] > 100 µM | [12] > 100 µM | [13] > 100 µM | [14] > 100 µM | [15] 91.4 µM | [16] > 100 µM | [17] > 100 µM | [18] > 100 µM

O=c1c2cc(I)ccc2nc(SCc2n[nH]c(=S)o2)n1Cc1ccccc1
inactive: [1] 18.6 µM | [2] 20.5 µM | [3] 20.6 µM | [4] 14.1 µM | [5] 18.9 µM | [6] 21 µM | [7] 19.1 µM | [8] 15.7 µM | [9] 16.9 µM | [10] 22.3 µM | [11] 17.3 µM | [12] 15.6 µM | [13] 23.4 µM | [14] 17.5 µM | [15] 16.6 µM | [16] 18.4 µM | [17] 6.25 µM | [18] 15.2 µM

COc1ccc2nccc(C3=CCC4CCN(C(=O)c5ccccc5)C3C4)c2c1 (stereo not drawn)
inactive: [1] > 100 µM | [2] > 100 µM | [4] > 100 µM | [6] > 100 µM | [7] > 100 µM | [9] > 100 µM | [10] > 100 µM | [11] > 100 µM | [12] > 100 µM | [13] > 100 µM | [14] > 100 µM | [15] > 100 µM | [20] > 100 µM | [16] 99.8 µM | [17] > 100 µM | [18] 86.9 µM

CC(=O)O/N=C(/C)c1ccccc1O
inactive: [2] > 100 µM | [4] > 100 µM | [6] > 100 µM | [19] > 100 µM | [7] > 100 µM | [9] > 100 µM | [10] > 100 µM | [11] > 100 µM | [12] > 100 µM | [13] > 100 µM | [14] > 100 µM | [15] > 100 µM | [20] > 100 µM | [16] > 100 µM | [17] > 100 µM | [18] > 100 µM

COc1ccc2cccc(C(=N)c3ccc(C)c4c3CCC4)c2c1
inactive: [1] 2.14 µM | [2] 5.97 µM | [4] 12 µM | [6] 11.6 µM | [19] 5.82 µM | [7] 7.26 µM | [9] 10.2 µM | [10] 11.2 µM | [11] 5.7 µM | [12] 11.9 µM | [13] 14.5 µM | [14] 16.4 µM | [15] 6.15 µM | [16] 6.58 µM | [17] 3.95 µM | [18] 3.52 µM

COc1ccc2c(=O)cc(-c3ccc(OC)c(OC)c3OC)oc2c1
inactive: [2] > 100 µM | [3] 47.6 µM | [4] 61.4 µM | [5] > 100 µM | [6] > 100 µM | [19] 26.5 µM | [7] > 85.3 µM | [8] 60.4 µM | [9] > 43.7 µM | [10] > 60.4 µM | [11] 48.1 µM | [13] > 89.1 µM | [14] > 60.1 µM | [15] > 83.4 µM | [16] > 31.6 µM | [17] > 82.4 µM | [18] > 44.4 µM
